Measured values taken from article PMC10319141, “Imidazoquinolines with improved pharmacokinetic properties induce a high IFNα to TNFα ratio in vitro and in vivo” (Frontiers in Immunology, 2023).
Read-outs that look alike come from different tables or passages of the source.

Experiments:
human TLR8 = molecular target: T1, human TLR8 (Homo sapiens, UniProt Q9NR97); test: HEK-Blue hTLR8 SEAP reporter assay; format: cell-based; settings: for TLR8 activity rel. to assay max: average maximal SEAP secretion relative to maximum secretion observed in the assay; for SEAP secretion from HEK-Blue hTLR-8: in words
T1 construct: host or cells: HEK blue hTLR8 reporter cells
T1 sequence (Q9NR97 27-1041): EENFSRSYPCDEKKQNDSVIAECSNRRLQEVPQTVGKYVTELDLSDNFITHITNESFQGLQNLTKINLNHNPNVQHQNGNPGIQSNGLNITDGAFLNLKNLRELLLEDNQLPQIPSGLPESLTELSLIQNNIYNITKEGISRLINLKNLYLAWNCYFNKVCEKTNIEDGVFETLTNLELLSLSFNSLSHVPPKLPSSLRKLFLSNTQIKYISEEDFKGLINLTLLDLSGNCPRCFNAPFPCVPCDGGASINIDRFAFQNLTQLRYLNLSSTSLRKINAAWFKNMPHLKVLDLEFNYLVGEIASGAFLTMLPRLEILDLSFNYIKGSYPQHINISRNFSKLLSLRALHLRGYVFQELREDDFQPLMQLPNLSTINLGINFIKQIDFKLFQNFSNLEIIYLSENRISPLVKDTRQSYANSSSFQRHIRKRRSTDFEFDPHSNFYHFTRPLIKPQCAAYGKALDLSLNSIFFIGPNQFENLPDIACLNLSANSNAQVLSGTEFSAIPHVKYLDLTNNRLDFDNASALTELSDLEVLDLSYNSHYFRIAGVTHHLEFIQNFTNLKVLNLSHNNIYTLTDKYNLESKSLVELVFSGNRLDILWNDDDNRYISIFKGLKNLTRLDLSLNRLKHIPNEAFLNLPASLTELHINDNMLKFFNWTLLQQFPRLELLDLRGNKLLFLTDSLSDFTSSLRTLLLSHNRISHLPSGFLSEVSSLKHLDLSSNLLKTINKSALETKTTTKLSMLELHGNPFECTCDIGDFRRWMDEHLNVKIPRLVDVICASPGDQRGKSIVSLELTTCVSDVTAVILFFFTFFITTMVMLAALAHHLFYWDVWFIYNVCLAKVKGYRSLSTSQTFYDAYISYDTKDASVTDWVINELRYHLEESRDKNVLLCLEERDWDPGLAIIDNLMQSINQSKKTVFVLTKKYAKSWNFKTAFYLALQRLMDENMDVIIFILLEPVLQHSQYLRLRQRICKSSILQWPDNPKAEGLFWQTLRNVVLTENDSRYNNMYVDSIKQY
Protocol: (§1) HEK blue hTLR7 or hTLR8 reporter cells (Invivogen) were cultivated in DMEM High Glucose (Biowest) according to the manufacturer’s instructions. Cells were treated with test compounds and controls at various concentrations in serum-free DMEM and incubated at 37°C, 5% CO2 for 24 h before supernatants were collected.
(§2) Relative secreted embryonic alkaline phosphatase (SEAP) activity in the supernatants was determined by quantification of para-Nitrophenyl Phosphate (pNPP)-turnover. Supernatants were diluted 10-fold in a solution containing 1 mM MgCl2, 1 M diethanolamine and 1 mg/mL pNPP and incubated at RT for 15 min before the reaction was stopped by the addition of 0.25 volumes of 1 M NaOH. Absorbance was measured at 405 nm on a Versamax microplate reader (Molecular Devices) and normalized to the mean of >5 solvent controls.
(§3) To obtain reliable estimates, replicate measurements of a minimum of 2 experiments were normalized to the maximal SEAP activity of a compound in a given experiment and pooled before fitting a non-linear function to the data.

human TLR7 = molecular target: T2, human TLR7 (Homo sapiens, UniProt Q9NYK1); test: HEK-Blue hTLR7 SEAP reporter assay; format: cell-based; settings: for TLR7 activity rel. to assay max: average maximal SEAP secretion relative to maximum secretion observed in the assay
T2 construct: host or cells: HEK blue hTLR7 reporter cells
T2 sequence (Q9NYK1 27-1049): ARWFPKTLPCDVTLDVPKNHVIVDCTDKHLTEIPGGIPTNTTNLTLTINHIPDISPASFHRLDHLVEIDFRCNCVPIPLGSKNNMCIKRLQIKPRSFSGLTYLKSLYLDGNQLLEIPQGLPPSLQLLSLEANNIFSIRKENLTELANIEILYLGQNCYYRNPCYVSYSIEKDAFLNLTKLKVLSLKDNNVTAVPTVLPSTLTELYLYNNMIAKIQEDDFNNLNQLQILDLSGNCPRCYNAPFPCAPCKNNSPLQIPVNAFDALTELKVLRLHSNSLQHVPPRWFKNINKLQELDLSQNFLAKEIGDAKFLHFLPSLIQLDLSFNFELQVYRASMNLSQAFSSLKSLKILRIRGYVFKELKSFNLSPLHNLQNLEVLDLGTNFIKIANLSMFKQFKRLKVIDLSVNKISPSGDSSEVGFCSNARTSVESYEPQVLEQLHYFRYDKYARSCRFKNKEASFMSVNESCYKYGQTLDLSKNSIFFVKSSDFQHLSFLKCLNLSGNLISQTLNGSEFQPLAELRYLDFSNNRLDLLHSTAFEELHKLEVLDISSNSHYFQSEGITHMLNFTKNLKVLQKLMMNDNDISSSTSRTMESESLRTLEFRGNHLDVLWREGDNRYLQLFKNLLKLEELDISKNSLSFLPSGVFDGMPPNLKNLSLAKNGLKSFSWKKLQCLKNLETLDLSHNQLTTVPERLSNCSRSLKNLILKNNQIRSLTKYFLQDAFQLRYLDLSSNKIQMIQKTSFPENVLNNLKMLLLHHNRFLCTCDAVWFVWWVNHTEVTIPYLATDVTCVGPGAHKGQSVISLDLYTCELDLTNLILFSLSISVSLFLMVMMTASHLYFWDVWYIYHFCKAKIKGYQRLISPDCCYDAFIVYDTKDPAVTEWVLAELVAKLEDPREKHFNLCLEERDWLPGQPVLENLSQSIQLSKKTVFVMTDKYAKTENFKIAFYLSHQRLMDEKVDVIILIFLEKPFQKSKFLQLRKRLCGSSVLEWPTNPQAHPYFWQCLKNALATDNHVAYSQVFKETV
Protocol: as §1, §2, §3

[1] = Compound concentrations in organs and plasma after three consecutive daily s.c. treatments (Figure 6B, S7); format: in vivo, mice; settings: for compound plasma level at peak: s.c.; for concentration at 4 h / concentration at 28 h / concentration at 52 h: mouse, sc, repeated daily s.c. treatment; for concentration at 4 h: after 4 h; for concentration at 28 h: after 28 h; for concentration at 52 h: after 52 h
Protocol: All samples were extracted with 3 or 6 volumes acetonitrile containing terbuthylazine as an internal standard (ACN) relative to either sample weight or volume. Liquid samples (plasma, culture medium, cell suspensions in stability experiments) were diluted in either 3 (culture medium, cell suspensions) or 6 (plasma) volumes ACN, pellet and blood samples were extracted by addition of ACN followed by sonication for 5 min. Organ samples were digested with 0.5 µg/mg Proteinase K (Genaxxon) for 1 h at 50°C before being homogenized using a Fastprep FP-24 5G instrument (MP-Biomedicals). Homogenates were diluted with 6 volumes ACN and homogenized again. All extracts were cleared by centrifugation at ~20.000xg for 10 min at 4°C.
Quantification of analytes was performed on an Agilent 1260/1290 Infinity system fitted with an Agilent C18 Poroshell 120 column (4.6 x 50 mm, 2.7 µm) coupled to a triple quadrupole Sciex API 4000 MS/MS detector. The mobile phase was composed of water containing 0.1% formic acid (eluent A) and acetonitrile containing 0.1% formic acid (eluent B). Gradient used was: 5% B for 0.5 min, to 100% B in 4.5 min, 100% B for 2 min, to 5% B in 0.5 min, 5% for 2.5 min. MS detection parameters are listed in SI Table S1 .
Formulation. Test compounds were prepared for application in either 1% Tween 80, 9% PEG400 in ultrapure water (Biowest) (i.v., i.p., p.o. application) or 5 mM citric acid in 0.9% saline (Braun) (subcutaneous application). If compounds were administered subcutaneously, injections were carried out into the neck crease.
Collection of Samples. Mice were bled from the tail vein at various timepoints. Heparin (Sigma) or K2-EDTA (Sigma) was added to blood samples to a final […] concentration of 10-15 Unit or 5 mM. Plasma was generated by centrifugation at 6800xg for 8 min at 4°C and stored at -80°C until analyzed by ELISA or CBA. Animals were sacrificed after the indicated time points by CO2 inhalation. Heart blood and organs for compound quantification by HPLC-MS/MS were collected post mortem and stored at –20°C until extracted as described above.
Dotted lines indicate the time of repeated compound applications. (A) Cytokine levels in pooled tail plasma of mice from individual treatment groups (n=3 per pool and time point), error bars represent range of two replicate measurements. (B) Peripheral blood was collected from the tail vein before, 15, 30 60, 120, 240, 360 and 480 min after s.c. treatment. Compound concentration in peripheral plasma was analyzed by HPLC-MS/MS, data presented as mean ± SD.
Samples were collected 4 h, 28 h and 52 h after s.c. treatment. Skin samples were sampled
at time points 4 h and 52 h. Compound concentrations were analyzed by HPLC-MS/MS, data

undifferentiated U937 = test: Helix NIR dye exclusion in undifferentiated U937; format: cell-based; settings: 25 µM; in words
Protocol: Exclusion of Helix NIR (BioLegend) was used to assay membrane integrity following compound treatment. Culture conditions for U937 were as described above, undifferentiated cells were incubated with varying concentrations of compound or with solvent. Helix NIR was added to the cells to a final concentration of 10 nM, cells were incubated at RT for 10 min and acquired on a ZE5 Cell Analyzer (Bio-Rad). The cutoff for positive staining was set to approximately the 99th percentile of unstained cells.

PMA-differentiated U937 = test: MTT viability assay in PMA-differentiated U937; format: cell-based; settings: 25 µM; PMA-differentiated U937, 2 days
[2] = 95% CI, HEK-blue human TLR8, 24 h, read-out: TLR8 EC50
[3] = Figure S4, axis c/[µM], pooled from 3 experiments, read-out: compound-specific EC50 in dose response plot, HEK Blue hTLR8
[4] = 95% CI, HEK-blue human TLR7, 24 h, read-out: TLR7 EC50
[5] = Figure S3, axis c/[µM], pooled from 3 experiments, read-out: compound-specific EC50 in dose response plot, HEK Blue hTLR7
[6] = brain, read-out: concentration in brain
[7] = liver, read-out: concentration in liver

| Compound | maximal induction in HEK-Blue hTLR-8 (lower than that of RSQ) (human TLR8) | EC50 (human TLR8; [2]) | EC50 (human TLR8; [3]) | TLR8 activity rel. to assay max (human TLR8) | Average maximal activity in HEK-Blue hTLR7 relative to RSQ (human TLR7) | EC50 (human TLR7; [4]) | EC50 (human TLR7; [5]) | TLR7 activity rel. to assay max (human TLR7) | compound plasma level at peak ([1]; day 1, 60 min after application) | compound plasma level at peak ([1]; day 2, 60 min after application) | compound plasma level at peak ([1]; day 3, 60 min after application) | concentration at 4 h [1, 6] | concentration at 28 h [1, 6] | concentration at 52 h [1, 6] | concentration at 4 h [1, 7] | concentration at 28 h [1, 7] | concentration at 52 h [1, 7] | effect on membrane integrity, dye exclusion assay in U937 (undifferentiated U937) | SEAP secretion from HEK-Blue hTLR-8 (human TLR8) | MTT U937, percent MTT conversion relative to solvent controls (PMA-differentiated U937) |
| --- | --- | --- | --- | --- | --- | --- | --- | --- | --- | --- | --- | --- | --- | --- | --- | --- | --- | --- | --- | --- |
| CC(C)Cn1cnc2c(N)nc3ccccc3c21 [IMQ, Imiquimod] |  |  |  |  |  | 5.2 to 8.3 µM | 6.52 µM | 35% ± 7% | 796 nM | 606 nM | 608 nM | 32 nM | 135 nM | 177 nM | 630 nM | 824 nM | 645 nM |  |  |  |
| CCCCc1nc2c(N)nc3ccccc3c2n1CCC1CCN(C(=O)OC(C)(C)C)CC1 [A1-boc] |  |  |  | 4% ± 2% | 55% | 0.39 to 0.69 µM | 0.527 µM | 55% ± 7% |  |  |  |  |  |  |  |  |  | negative effects on membrane integrity | close to baseline | 50% |
| CCCCc1nc2c(N)nc3ccccc3c2n1CC1CCN(C(=O)OC(C)(C)C)CC1 [A2-boc] |  |  |  | 4% ± 1% | 86% | 0.23 to 0.47 µM |  | 86% ± 9% |  |  |  |  |  |  |  |  |  |  | close to baseline |  |

Now from value to compound, other results behind:

| maximal induction in HEK-Blue hTLR-8 (lower than that of RSQ) (human TLR8) | EC50 (human TLR8; [2]) | EC50 (human TLR8; [3]) | TLR8 activity rel. to assay max (human TLR8) | Average maximal activity in HEK-Blue hTLR7 relative to RSQ (human TLR7) | EC50 (human TLR7; [4]) | EC50 (human TLR7; [5]) | TLR7 activity rel. to assay max (human TLR7) | compound plasma level at peak ([1]; day 1, 60 min after application) | compound plasma level at peak ([1]; day 2, 60 min after application) | compound plasma level at peak ([1]; day 3, 60 min after application) | concentration at 4 h [1, 6] | concentration at 28 h [1, 6] | concentration at 52 h [1, 6] | concentration at 4 h [1, 7] | concentration at 28 h [1, 7] | concentration at 52 h [1, 7] | effect on membrane integrity, dye exclusion assay in U937 (undifferentiated U937) | SEAP secretion from HEK-Blue hTLR-8 (human TLR8) | Compound | MTT U937, percent MTT conversion relative to solvent controls (PMA-differentiated U937) |
| --- | --- | --- | --- | --- | --- | --- | --- | --- | --- | --- | --- | --- | --- | --- | --- | --- | --- | --- | --- | --- |
| 57% | 2.8 to 3.1 µM | 2.96 µM | 57% ± 9% | 81% | 0.075 to 0.12 µM | 0.0957 µM | 81% ± 13% |  |  |  |  |  |  |  |  |  |  |  | CCCCc1nc2c(N)nc3ccccc3c2n1CC1CCNCC1 [A2] |  |
| 18% | 11 to 13 µM | 12.1 µM | 18% ± 8% |  | 1.5 to 2.1 µM | 1.76 µM | 84% ± 5% |  |  |  |  |  |  |  |  |  |  |  | CCCCc1nc2c(N)nc3ccccc3c2n1CCOCCOCCO [A4] |  |
| 36% | 8.2 to 8.5 µM | 8.36 µM | 36% ± 4% |  | 1 to 1.5 µM | 1.24 µM | 62% ± 9% |  |  |  |  |  |  |  |  |  |  |  | CCCCc1nc2c(N)nc3ccccc3c2n1CCOCCOCCN [A3] |  |
